Each structure is given as a SMILES string.

By Ki is commonly meant the dissociation constant of the complex between target and ligand, obtained from inhibition or displacement.

In one assay the target is T1, human α1b-adrenoceptor (Homo sapiens, UniProt P35368).
T1 construct: expressed in transfected cells
T1 sequence (P35368 1-520): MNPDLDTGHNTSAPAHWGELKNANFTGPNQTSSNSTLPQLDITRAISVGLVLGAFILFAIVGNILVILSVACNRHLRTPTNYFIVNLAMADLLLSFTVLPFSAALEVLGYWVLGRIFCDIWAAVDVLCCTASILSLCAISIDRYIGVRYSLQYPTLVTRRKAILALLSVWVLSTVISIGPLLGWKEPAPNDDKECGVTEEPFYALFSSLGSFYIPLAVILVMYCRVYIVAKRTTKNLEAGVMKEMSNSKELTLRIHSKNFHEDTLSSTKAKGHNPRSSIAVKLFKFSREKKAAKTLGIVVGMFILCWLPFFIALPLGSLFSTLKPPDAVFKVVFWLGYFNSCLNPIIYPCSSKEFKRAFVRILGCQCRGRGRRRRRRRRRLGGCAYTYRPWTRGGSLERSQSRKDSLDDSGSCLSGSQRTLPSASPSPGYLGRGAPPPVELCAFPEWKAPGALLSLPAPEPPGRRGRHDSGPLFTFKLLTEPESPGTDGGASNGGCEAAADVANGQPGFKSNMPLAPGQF
Description: [3H]prazosin binding to cloned human α1-adrenoceptor subtypes (α1b). The settings on record: for Ki: [3H]prazosin, CHO cell membranes, read-out: Binding affinity (Ki, nM) α1b; for α1b/5-HT1A: selectivity: ratio of Ki at α1b and Ki at 5-HT1A. Here is the method:
Binding to cloned human α1-adrenoceptor subtypes was performed in membranes from CHO cells (chinese hamster ovary cells) transfected by electroporation with DNA expressing the gene encoding each α1-adrenoceptor subtype. Cloning and stable expression of the human α1-adrenoceptor gene was performed as previously described (Testa et al. Pharmacol. Comm., 6: 79–86,1995).
CHO cells were grown in suspension in Iscove's modified Dulbecco's medium, supplemented with 10% fetal calf serum and gentamicin (50 μg/ml), at 37° C. in 7% CO2 in an humidified incubator. Cells were collected by centrifugation, lised in ice-cold Tris 5 mM and EDTA 5 mM buffer (pH 7.4) and gently homogenised. Homogenates were centrifuged at 40000×g×20 min and pellets were resuspended in a small volume of ice-cold Tris 5 mM and EDTA 5 mM buffer (pH 7.4) and immediately frozen and stored at −80° C. until use.
CHO cell membranes were resuspended and incubated in 50 mM Tris, pH 7.4, with 0.2 nM [^3H]prazosin, in a final volume of 1.02 ml for 30 min at 25° C., in absence or presence of competing drugs. Non-specific binding was determined in the presence of 10 μM phentolamine. The incubation was stopped by rapid filtration through 0.2% polyethyleneimine pretreated Schleicher & Schuell GF52 filters using a Tomtec (PerkinElmer) cell harvester. The filters were washed with 3×1 ml of ice-cold Tris buffer, dried and the radioactivity was measured in a Betaplate (Wallac) liquid scintillation counter.
The inhibition of specific binding by the compounds was analysed to estimate the IC50 value by the non-linear curve-fitting program Allfit (De Lean et al. Am. J. Physiol. 235, E97-E102, 1978). The IC50 value is converted to an affinity constant (Ki) by the equation of Cheng & Prusoff (Biochem. Pharmacol. 22: 3099–3108, 1973).

Assay [1] has as its target T2, rat D3 dopamine receptors (Rattus norvegicus, UniProt P19020).
T2 construct: expressed in transfected cells; host or cells: CHO cells (permanent expression)
The assay is described as follows: [3H]-7-OH-DPAT binding to rat recombinant D3 dopamine receptors (SPA). The settings on record: for Ki: [3H]-7-OH-DPAT, CHO cell membranes, read-out: Binding affinity for D3 dopamine receptors Ki; for D3/5-HT1A: selectivity: ratio of Ki at D3 and Ki at 5-HT1A. Here is the method: Cloned rat D3 dopamine receptors permanently expressed in CHO cells were used (Chio et al. Mol. Pharmacol. 45, 51–60, 1994). Membranes were prepared by mechanical disruption of cell pellets in ice cold 50 mM Tris, 5 mM EDTA, 5 mM EGTA, pH 7.4 followed by low (100 g), medium (20000 g) and high (80000 g) speed centrifugation steps. Competition radioligand binding experiments employed 11 drug concentrations run in duplicate in a scintillation proximity assay (SPA) format. The radioligand used was [^3H]-7-OH-DPAT (154 Ci/mmol). […] binding (75–95% of total) was defined with cold haloperidol added in excess (3 μM). Total binding was determined with buffer: 20 mM HEPES, 10 mM MgSO4, 150 mM NaCl, 1 mM EDTA (pH 7.4). Binding mixtures were made in flexible, 96-well, Wallac Micro-Beta plates by the addition of 11 μl of drug dilution, 11 μl of radioligand, and 178 μl of membrane/SPA bead suspension (100 mg of WGA-coated SPA beads incubated with 5–15 μg protein/plate in 10 ml binding buffer for 30 minutes at room temperature followed by low-speed centrifugation and resuspension in 2 ml binding buffer). After sealing and incubation at room temperature for 1 hour the plates were counted in a Wallac Micro-Beta scintillation counter.
IC50 values from both assay methods were estimated by fitting the data to a one-site competition model: Y=T/(1+10^log(X)−log(IC50)), where Y is the specific CPM's bound at concentration X and T is the specific CPM's bound in the absence of competitor. Inhibition constants (Ki) were calculated using the Cheng-Prushoff equation (Biochem. Pharmacol. 22: 3099–3108, 1973).

T2 sequence (P19020 whole entry): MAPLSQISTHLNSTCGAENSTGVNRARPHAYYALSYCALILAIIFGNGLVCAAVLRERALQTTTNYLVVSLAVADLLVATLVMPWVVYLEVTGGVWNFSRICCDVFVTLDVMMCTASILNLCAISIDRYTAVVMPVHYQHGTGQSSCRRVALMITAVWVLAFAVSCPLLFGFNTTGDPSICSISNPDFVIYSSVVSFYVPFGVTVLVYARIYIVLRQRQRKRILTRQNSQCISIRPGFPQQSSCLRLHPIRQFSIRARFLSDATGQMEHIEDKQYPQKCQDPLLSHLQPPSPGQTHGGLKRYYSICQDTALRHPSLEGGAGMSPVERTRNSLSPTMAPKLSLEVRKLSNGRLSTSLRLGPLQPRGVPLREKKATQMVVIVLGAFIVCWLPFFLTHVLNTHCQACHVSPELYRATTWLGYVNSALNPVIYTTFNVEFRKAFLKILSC

Turning to `COc1ccccc1N1CCN(CC[C@@H](c2ccccc2F)[C@H](O)C2CCCCC2)CC1` (racemic) [Ex. 1, 1-[(SR-RS)-4-cyclohexyl-4-hydroxy-3-(2-fluorophenyl)-butyl]-4-(2-methoxyphenyl)-piperazine], at human α1b-adrenoceptor, the Ki is 5.9 nM and the α1b/5-HT1A was 45. Also, in assay [1], the Ki turned out to be 12.5 nM and the D3/5-HT1A came to 96.

On to `COc1ccccc1N1CCN(CC[C@H](c2ccccc2)[C@@H](O)C2CCCCC2)CC1` (racemic) [Ex. 5, 1-[(RS,SR)-4-Cyclohexyl-4-hydroxy-3-phenyl-butyl]-4-(2-methoxyphenyl)-piperazine, reference compound], for which, at human α1b-adrenoceptor, the Ki is 12 nM and the α1b/5-HT1A stood at 18. In assay [1], the Ki was 7 nM and the D3/5-HT1A was found to be 11.

Regarding `COc1ccccc1N1CCN(CC[C@H](c2ccccc2F)[C@@H](O)C2CCCCC2)CC1` [Ex. 1Y, 1-[(3R,4S)-4-cyclohexyl-4-hydroxy-3-(2-fluorophenyl)-butyl]-4-(2-methoxyphenyl)-piperazine], on human α1b-adrenoceptor, the Ki turned out to be 11 nM and the α1b/5-HT1A is on record as 30. Besides, in assay [1], the Ki was 20 nM and the D3/5-HT1A stood at 54.

On to `COc1ccccc1N1CCN(CC[C@H](c2ccccc2F)[C@H](O)C2CCCCC2)CC1` [Ex. 2X, 1-[(3R,4R)-4-cyclohexyl-4-hydroxy-3-(2-fluorophenyl)-butyl]-4-(2-methoxyphenyl)-piperazine], for which, at human α1b-adrenoceptor, the Ki was 11 nM and the α1b/5-HT1A came out at 46. In assay [1], the Ki is 3 nM and the D3/5-HT1A was determined as 12.

For the origin of these results see US7071197B2, “N,N-disubstituted diazocycloalkanes” (Recordati S.A., priority 2002, dated 2006).
